Bounds are passed on as bounds.

By melting point is commonly meant the temperature, or range, at which the solid turns liquid.

Consider `O=C(c1ccc(C(=O)N2CCC[C@@H]3CCCC[C@H]32)cc1)N1CCCCC1` (relative stereo), for which the melting point was 136 to 137 °C.

Take `Nc1c(F)cc(Cn2ccnc2S)cc1F`: the melting point fell in the range of 181 to 184 °C.

The compound `Clc1nc2ccccc2c2occc12` registered a melting point of 120 to 122 °C.

`O=C1NC(=O)C(Cc2ccc(Oc3ccc(Oc4ccc(CC5OC(=O)NC5=O)cc4)cc3)cc2)O1` (stereo unspecified) registered a melting point of 93 to 96 °C.

The compound `Nc1cccc(C=CC(=O)N2CCc3c([nH]c4ccccc34)C2c2ccc3c(c2)OCO3)c1` (stereo unspecified) gave a melting point of 139 to 141 °C.

Regarding `CC(=O)NCC1CN(c2ccc(-n3cccc3)c(F)c2)C(=O)O1` (stereo unspecified), the melting point lay in the range of 198 to 200 °C.

On to `Nc1sc2c(c1C(=O)c1ccc3ccccc3c1)CCCC2`, for which the melting point was in the range of 95 to 97 °C.

`COc1ccc(C(C)(C)C)cc1C=Cc1ccc(CCl)cc1` yielded a melting point of 103 to 104 °C.

For the compound `CC(=O)COc1cc(N2C(=O)c3ccccc3C2=O)ccc1N1C(=O)c2ccccc2C1=O`, the melting point was determined as 300 °C.

Regarding `Cc1cc(O)c(SCc2ccccc2F)c(=O)o1`, the melting point was in the range of 123 to 125 °C.

Take `CCOC(=O)C1CCc2c(c3ccccc3n2C(=O)c2ccccc2)C1` (stereo unspecified): the melting point was in the range of 67 to 69 °C.

As to `COc1ccc2c(c1)OC(C)(C)C(NC(=O)c1cc(Cl)ccc1OC)C2=O` (stereo unspecified), the melting point came to 174 °C.

The compound `Cc1ccc(S(=O)(=O)c2ncc(I)cn2)cc1` showed a melting point of 138 to 139 °C.

Regarding `CC(C)Oc1ccc(CCCOc2nn(C)cc2CC(=O)O)c(OCc2ccc(Cl)cc2Cl)c1`, the melting point fell in the range of 102 to 103 °C.

In the case of `O=C(Cl)c1cnc(O)c(Cl)c1`, the melting point is more than 250 °C.

On to `CC(C)Sc1ccc2c(c1)NC(=O)C2`, for which the melting point lay within 99 to 102 °C.

Turning to `C[C@]1(CN2CCN(N=Cc3cc4cc(C(F)(F)F)ccc4o3)CC2)Cn2cc([N+](=O)[O-])nc2O1`, the melting point was 190 to 192 °C.

Consider `CC(C)CC(=O)Nc1ccc(-c2ccncc2)cc1`, for which the melting point lay in the range of 166 to 176 °C.

For `C#CCOc1ccc(CCNC(=O)[C@@H](O)c2ccccc2)cc1OC`, the melting point lay within 81 to 83 °C.

In turn, `CCCOc1ccc(CC(=O)NCC(=O)O)cc1Cl` came in with a melting point of 110 to 112 °C.

In the case of `COc1cc2nc(OC)n3cnnc3c2cc1OC`, the melting point lay within 245 to 250 °C.

`O=Cc1cnc2n1CCc1ccccc1C2=C1CCN(CCc2ccc(OCc3ccc4ccccc4n3)cc2)CC1` displayed a melting point of 194 °C.

`Cc1nc(N2C(=O)N(Cc3ccc(F)cc3)CC2O)sc1C(=O)NCc1ccccc1` (stereo unspecified) had a melting point of 133 to 134 °C.

`CC(C)(C)c1cc(C[Si](C)(C)C)cc(C(C)(C)C)c1S`: the melting point fell in the range of 100 to 101 °C.

Turning to `COc1ccc2ccc(NC(=O)c3cccc(O)c3)nc2n1`, the melting point is 295 °C.

In turn, `CCOc1cc(CF)nc(N)n1` gave a melting point of 85 to 87 °C.

Turning to `NC(=O)C(CCC(=O)O)N1Cc2c(N)cccc2C1=O` (stereo unspecified), the melting point lay in the range of 334 to 336 °C.

Compound `CN(C)CC/C=C1/c2ccccc2COc2ccc(C(=O)O)cc21` came in with a melting point of 121 to 123 °C.

In turn, `CN1CCN(c2sc(-c3nc4ccccc4c(=O)n3-c3ccc(Cl)cc3)cc2-c2ccc(S(C)(=O)=O)cc2)CC1` had a melting point of 232 to 233 °C.

The compound `O=C1C(=C(O)Cc2ccccc2)SC(=S)N1c1ccc(Cl)cc1` returned a melting point of 134 to 137 °C.

Take `CN(CCOc1ccc([N+](=O)[O-])cc1)c1ccncc1`: the melting point lay within 88 to 89 °C.

In the case of `Cc1ccc(-c2nc(Cc3cccc(Br)c3)c(C)o2)cc1`, the melting point is 74 to 75 °C.

`Cc1c(C2CCN(C)CC2)[nH]c(=O)c2ccccc12` came in with a melting point of 202 to 204 °C.

Compound `Cc1ccc2oc(NC(CC3CCCCC3)c3ccccn3)nc2c1` (stereo unspecified) came in with a melting point of 80 to 86 °C.

`Cc1ccccc1-c1c(C2CCN(C)CC2)[nH]c(=O)c2ccccc12` gave a melting point of 249 to 251 °C.

Take `Cc1noc(NC(=O)c2cnccc2C(F)(F)F)c1Cl`: the melting point fell in the range of 153 to 156 °C.

In turn, `CCCCCCCCCCCC1=NCCN1` gave a melting point of 82 °C.

The compound `CN1CCC2(OCCO2)C2(CCCC2)C1=O` came in with a melting point of 84 to 85 °C.

On to `[N-]=[N+]=NC1(CO)OC(n2ccc(=O)[nH]c2=O)C(O)C1O` (stereo unspecified), for which the melting point lay in the range of 86 to 93 °C.

As for `CCOC(=O)c1ccc(NC(=O)C=C(c2ccccc2)c2ccccc2)cc1`, the melting point lay within 166 to 169 °C.

`COc1ccc([N+](=O)[O-])c(/C=C/c2cc(/C=C/c3ccc4cc[nH]c4c3)n[nH]2)c1` had a melting point of 104 to 109 °C.

Regarding `N#Cc1ccccc1C(F)(F)C(F)(F)c1ccc(F)cc1`, the melting point fell in the range of 90 to 93 °C.

With `C[C@H](NC(=O)c1c(C(=O)O)cccc1[N+](=O)[O-])C(=O)N1CCC[C@H]1C(=O)O`, the melting point lay within 134 to 137 °C.

Turning to `N#CCCNC(=O)c1cccc(-c2cccc3cc(Cc4cccc(C(F)(F)F)c4)oc23)c1`, the melting point was 154 to 155 °C.

Turning to `COc1ccc(NC2=NN(c3cccc(C(F)(F)F)c3)CC2)cc1`, the melting point lay within 127 to 128 °C.

Compound `CCOC(=O)/C=C/c1cn(-c2ccccc2)nc1OCc1ccc(OCc2nc(-c3ccccc3)oc2C)cc1` showed a melting point of 154 to 155 °C.

For the compound `COC(=O)c1cccc(OC)c1S(=O)(=O)Cl`, the melting point lay within 106 to 108 °C.

On to `C=CC(=O)Nc1ccc2c(Nc3cccc(Cl)c3)ncnc2c1`, for which the melting point was in the range of 296 to 298 °C.

`Oc1ccc2cc(F)ccc2c1` returned a melting point of 118 to 120 °C.

In turn, `CS(=O)(=O)c1ccc(-n2nccc2-c2ccc(Br)cc2)cc1F` registered a melting point of 155 to 156 °C.

Regarding `Cc1c(S(=O)(=O)Nc2ccc(-c3nc(CCl)cs3)cc2S(C)(=O)=O)sc2ccc(F)cc12`, the melting point was in the range of 190 to 191 °C.

For `CCC(CC)c1ccc(OC)c2nc(Nc3c(C)cc(Cl)cc3OC)n(C)c12`, the melting point fell in the range of 188 to 189 °C.

In the case of `COc1ccc(NC(=O)N2CCC(C)C2=O)cc1` (stereo unspecified), the melting point lay in the range of 71 to 72 °C.

The compound `N#CCc1cccnc1C#N` had a melting point of 48 to 51 °C.

`C=CCOC(=O)c1ccc(CC(=O)OC(C)(C)C)cc1` had a melting point of 68 to 69 °C.

In the case of `Cc1nn(-c2cc(OC(F)F)n(C)n2)c(-c2ccc(Cl)cc2)c1CC(=O)O`, the melting point was 112 °C.

On to `O=[N+]([O-])c1ccc(-c2nnc3ccc(Cl)nn23)s1`, for which the melting point was 215 to 217 °C.

In the case of `CCOC(=O)c1sc(Oc2ccc(C(C)=O)c(O)c2)c2c1CCc1cnn(C)c1-2`, the melting point lay in the range of 131 to 132 °C.

On to `c1ccc(C2=NC(c3ccccc3)C3=C(N2)c2nc(-c4ccccc4)cc(-c4ccccc4)c2CC3)cc1` (stereo unspecified), for which the melting point lay in the range of 142 to 144 °C.

Consider `Cc1ccc(Cl)c(C(=O)c2ccc(Cl)cc2)c1`, for which the melting point lay within 85 to 90 °C.

In the case of `Cc1ccc(C#CC2CCC3C4CCC5CC(O)CCC5(C)C4CCC23C)cc1` (stereo unspecified), the melting point lay within 178 to 180 °C.

`c1ccc(Nn2ccc3ccccc32)nc1` yielded a melting point of 109 to 110 °C.

Take `CC12CCC(C(=O)O)=CC1=CCC1C2CCC2(C)C(C(=O)Cc3ccccc3)CCC12` (stereo unspecified): the melting point was found to be 258 °C.

The compound `COc1ccc(Cl)cc1C(=O)NCCc1ccc(CC(C)(C)C(=O)O)cc1` registered a melting point of 138 to 141 °C.

In turn, `CCCOC(OCCC)P(=O)(O)CCCN` came in with a melting point of 223 to 225 °C.

With `Cc1ccc(S(=O)(=O)NC(C)(C)CO)cc1NC(=O)c1cnn2c(C3CC3)cc(-c3ccc(C(F)(F)F)cc3)nc12`, the melting point is 232 to 233 °C.

In turn, `CC(C)(C)OC(=O)CC(=O)c1ccco1` came in with a melting point of 74 to 75 °C.

In the case of `O=C1C(=O)N(CCN2CCN(C(c3ccccc3)c3ccccc3)CC2)c2ccccc21`, the melting point is 145 to 148 °C.

For `CSC(=NC(=O)NC(C)C)NC(=O)NC(C)C`, the melting point lay in the range of 125 to 127 °C.

In turn, `CS(=O)(=O)Oc1cccc2c1C(=O)OC2=O` had a melting point of 134 to 140 °C.

The compound `Nc1cc(C=C2c3ccccc3CCc3ccccc32)ccc1O` showed a melting point of 159 °C.

`Cc1nc2cccc3n(CCCCNS(=O)(=O)CC(F)(F)F)c(=O)c1n23` registered a melting point of 116 to 118 °C.

The compound `CC(C)(Oc1ccc(Cl)cc1)C(=O)NCCO[N+](=O)[O-]` registered a melting point of 81 to 82 °C.

The compound `Clc1ccc(-c2cc(CCC3CCCNC3)c3ccccc3n2)cc1` (stereo unspecified) returned a melting point of 155 °C.

`CC1(C)COP(=O)(Cc2ccc(N)cc2)OC1` showed a melting point of 152 to 153 °C.

`CC(=O)OC(C(C)C(C)C)C(OC(C)=O)C(C)C1CCC2C3CC(=O)C4CC=CCC4(C)C3CCC12C` (stereo unspecified) gave a melting point of 210 to 213 °C.

Regarding `CC(C)N(CCC(C#N)c1ccc(-c2ccccc2)cc1)C(C)C` (stereo unspecified), the melting point fell in the range of 54 to 56 °C.

`O=c1[nH]c2ccc3c(c2o1)OC(CNCc1ccccc1)CO3` (stereo unspecified) returned a melting point of 220 °C.

`CCCCC(=O)N1CCN(C(=O)Nc2ccccc2CCc2cc(C(C)(C)C)c(O)c(C(C)(C)C)c2)CC1` displayed a melting point of 126 to 128 °C.

`CC(C)(O)CN(c1ccc(F)cc1)[C@H]1c2cc(C#N)ccc2OC(C)(C)[C@@H]1O` gave a melting point of 70 °C.

In turn, `CC(=O)OC1CCc2c(Nc3ccc(C#N)cc3)ncnc21` (stereo unspecified) yielded a melting point of 215 to 217 °C.

`COC(=O)C(=CN(C)C)N(C)c1nccc(-c2ccccc2)n1` displayed a melting point of 101 °C.

`CC1c2ccccc2-c2ccc(F)cc2N1C(=O)c1ccc(O)cc1` (stereo unspecified) gave a melting point of 134 to 135 °C.

Turning to `CC(=NNC(=O)OC1CC(C)CCC1C(C)C)c1ccncc1` (stereo unspecified), the melting point was found to be 188 °C.

`c1ccc2c(c1)ccn2Cc1ccncc1`: the melting point fell in the range of 65 to 68 °C.

Consider `CCN(CC)C(=O)c1ccc(-c2cc3c(Nc4cccc(Cl)c4)ncnc3[nH]2)cc1`, for which the melting point is more than 250 °C.

Compound `CN(Cc1ccc(S(C)(=O)=O)cc1)S(=O)(=O)c1cn(S(=O)(=O)N(C)C)c(C#N)n1` yielded a melting point of 169 to 172 °C.

For the compound `CCOCc1nc2c(N)nc3cc(Br)ccc3c2s1`, the melting point is 201 to 204 °C.

`CSc1ccc(-c2cc(C(F)F)nn2-c2ccc(C(C)=O)cc2)cc1` returned a melting point of 143 to 145 °C.

Regarding `OC(Cn1cncn1)(c1ccc(F)cc1)C(F)(F)C(F)(F)C(F)(F)F` (stereo unspecified), the melting point was 126 to 127 °C.

Compound `Cc1ccc(C(=O)c2cc(CCN(C)C)c(O)c(C(C)(C)C)c2)cc1` came in with a melting point of 123 to 124 °C.
